Laboratory results taken from PubChem BioAssay (NCI).
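The concentration for 50% growth inhibition is given as GI50. TGI marks complete inhibition of growth.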

Experiments:
Assay in all cases: NCI-60 cell line screen, 384-well format
786-0 renal = system: 786-0 renal
A498 renal = system: A498 renal
A549 NSCLC = system: A549 NSCLC
ACHN renal = system: ACHN renal
BT-549 breast = system: BT-549 breast
CAKI-1 renal = system: CAKI-1 renal
CCRF-CEM leukemia = system: CCRF-CEM leukemia
DU-145 prostate = system: DU-145 prostate
EKVX NSCLC = system: EKVX NSCLC
HCT-116 colon = system: HCT-116 colon
HCT-15 colon = system: HCT-15 colon
HOP-62 NSCLC = system: HOP-62 NSCLC
HOP-92 NSCLC = system: HOP-92 NSCLC
HS 578T breast = system: HS 578T breast
HT29 colon = system: HT29 colon
IGROV1 ovarian = system: IGROV1 ovarian
K-562 leukemia = system: K-562 leukemia
KM12 colon = system: KM12 colon
LOX IMVI melanoma = system: LOX IMVI melanoma
M14 melanoma = system: M14 melanoma
MALME-3M melanoma = system: MALME-3M melanoma
MCF7 breast = system: MCF7 breast
MDA-MB-231 breast = system: MDA-MB-231 breast
MDA-MB-435 melanoma = system: MDA-MB-435 melanoma
MDA-MB-468 breast = system: MDA-MB-468 breast
NCI-H226 lung = system: NCI-H226 lung
NCI-H23 lung = system: NCI-H23 lung
NCI-H322M lung = system: NCI-H322M lung
NCI-H522 lung = system: NCI-H522 lung
NCI/ADR-RES ovarian = system: NCI/ADR-RES ovarian
OVCAR-3 ovarian = system: OVCAR-3 ovarian
OVCAR-4 ovarian = system: OVCAR-4 ovarian
OVCAR-5 ovarian = system: OVCAR-5 ovarian
OVCAR-8 ovarian = system: OVCAR-8 ovarian
PC-3 prostate = system: PC-3 prostate
RPMI-8226 leukemia = system: RPMI-8226 leukemia
RXF 393 renal = system: RXF 393 renal
SF-268 CNS = system: SF-268 CNS
SF-295 CNS = system: SF-295 CNS
SF-539 CNS = system: SF-539 CNS
SK-MEL-2 melanoma = system: SK-MEL-2 melanoma
SK-MEL-28 melanoma = system: SK-MEL-28 melanoma
SK-OV-3 ovarian = system: SK-OV-3 ovarian
SN12C renal = system: SN12C renal
SNB-75 CNS = system: SNB-75 CNS
SW-620 colon = system: SW-620 colon
T-47D breast = system: T-47D breast
U251 glioblastoma = system: U251 glioblastoma
UACC-257 melanoma = system: UACC-257 melanoma
UACC-62 melanoma = system: UACC-62 melanoma
UO-31 renal = system: UO-31 renal

`CC(=O)C1(O)Cc2c(O)c3c(c(O)c2C(OC2CC(N)C(O)C(C)O2)C1)C(=O)c1ccccc1C3=O` (stereo not given) gave a GI50 ([…]-0 renal) of 23.4 nM, a TGI (786-0 renal) of 112 nM and a GI50 (A498 renal) of 17.5 nM. It also gave a TGI (A498 renal) of 146 nM, a GI50 (A549 NSCLC) of 13.8 nM and a TGI (A549 NSCLC) of 133 nM. The GI50 (ACHN renal) was 21.3 nM, the TGI (ACHN renal) was 89.6 nM and the GI50 (BT-549 breast) was 20.1 nM. For the same compound, the TGI (BT-549 breast) was 94.4 nM, the GI50 (CAKI-1 renal) was 30.9 nM and the TGI (CAKI-1 renal) was 169 nM. For the same compound, the TGI (CCRF-CEM leukemia) was 15.6 nM, the GI50 (DU-145 prostate) was 11.3 nM and the TGI (DU-145 prostate) was 136 nM. It also gave a GI50 (EKVX NSCLC) of 150 nM, a TGI (EKVX NSCLC) of 973 nM and a GI50 (HCT-116 colon) of 14.6 nM. The TGI (HCT-116 colon) was 153 nM, the GI50 (HCT-15 colon) was 17.8 nM and the TGI (HCT-15 colon) was 103 nM. The GI50 (HOP-62 NSCLC) was 13.3 nM, the TGI (HOP-62 NSCLC) was 34.6 nM and the GI50 (HOP-92 NSCLC) was 35.1 nM. For the same compound, the TGI (HOP-92 NSCLC) was 265 nM, the GI50 (HS 578T breast) was 11.8 nM and the TGI (HS 578T breast) was 129 nM. The GI50 (HT29 colon) was 27.7 nM, the TGI (HT29 colon) was 106 nM and the GI50 (IGROV1 ovarian) was 125 nM. The TGI (IGROV1 ovarian) was 412 nM, the GI50 (K-562 leukemia) was 15 nM and the TGI (K-562 leukemia) was 116 nM. For the same compound, the GI50 (KM12 colon) was 11.5 nM, the TGI (KM12 colon) was 36.3 nM and the GI50 (LOX IMVI melanoma) was 20.3 nM. For the same compound, the TGI (LOX IMVI melanoma) was 139 nM, the GI50 (M14 melanoma) was 17.5 nM and the TGI (M14 melanoma) was 114 nM. It also gave a GI50 (MALME-3M melanoma) of 54.6 nM, a TGI (MALME-3M melanoma) of 191 nM and a GI50 (MCF7 breast) of 24.1 nM. For the same compound, the TGI (MCF7 breast) was 225 nM, the GI50 (MDA-MB-231 breast) was 19.4 nM and the TGI (MDA-MB-231 breast) was 106 nM. The GI50 (MDA-MB-435 melanoma) was 78.6 nM, the TGI (MDA-MB-435 melanoma) was 230 nM and the GI50 (MDA-MB-468 breast) was 14.3 nM. The TGI (MDA-MB-468 breast) was 34.3 nM, the GI50 (NCI-H226 lung) was 25.7 nM and the TGI (NCI-H226 lung) was 128 nM. The GI50 (NCI-H23 lung) was 23.2 nM, the TGI (NCI-H23 lung) was 90.1 nM and the GI50 (NCI-H322M lung) was 190 nM. For the same compound, the TGI (NCI-H322M lung) was 572 nM, the GI50 (NCI-H522 lung) was 29.6 nM and the TGI (NCI-H522 lung) was 162 nM. It also gave a GI50 (NCI/ADR-RES ovarian) of 480 nM, a TGI (NCI/ADR-RES ovarian) of 2000 nM and a GI50 (OVCAR-3 ovarian) of 65.3 nM. The TGI (OVCAR-3 ovarian) was 257 nM, the GI50 (OVCAR-4 ovarian) was 178 nM and the TGI (OVCAR-4 ovarian) was 482 nM. The GI50 (OVCAR-5 ovarian) was 44.7 nM, the TGI (OVCAR-5 ovarian) was 242 nM and the GI50 (OVCAR-8 ovarian) was 31.6 nM. The TGI (OVCAR-8 ovarian) was 145 nM, the GI50 (PC-3 prostate) was 60.5 nM and the TGI (PC-3 prostate) was 214 nM. The TGI (RPMI-8226 leukemia) was 19.1 nM, the GI50 (RXF 393 renal) was 53.9 nM and the TGI (RXF 393 renal) was 197 nM. The GI50 (SF-268 CNS) was 24.9 nM, the TGI (SF-268 CNS) was 126 nM and the GI50 (SF-295 CNS) was 19 nM. For the same compound, the TGI (SF-295 CNS) was 51.7 nM, the GI50 (SF-539 CNS) was 13.5 nM and the TGI (SF-539 CNS) was 75.5 nM. It also gave a GI50 (SK-MEL-2 melanoma) of 51.9 nM, a TGI (SK-MEL-2 melanoma) of 93.2 nM and a GI50 (SK-MEL-28 melanoma) of 93.8 nM. The TGI (SK-MEL-28 melanoma) was 379 nM, the GI50 (SK-OV-3 ovarian) was 27.7 nM and the TGI (SK-OV-3 ovarian) was 138 nM. For the same compound, the GI50 (SN12C renal) was 15.7 nM, the TGI (SN12C renal) was 59.7 nM and the GI50 (SNB-75 CNS) was 33.4 nM. The TGI (SNB-75 CNS) was 144 nM, the GI50 (SW-620 colon) was 13.2 nM and the TGI (SW-620 colon) was 178 nM. It also gave a GI50 (T-47D breast) of 42.1 nM, a TGI (T-47D breast) of 296 nM and a GI50 (U251 glioblastoma) of 20.3 nM. It also gave a TGI (U251 glioblastoma) of 105 nM, a GI50 (UACC-257 melanoma) of 138 nM and a TGI (UACC-257 melanoma) of 296 nM. It also gave a GI50 (UACC-62 melanoma) of 18 nM, a TGI (UACC-62 melanoma) of 123 nM and a GI50 (UO-31 renal) of 76 nM. It also gave a TGI (UO-31 renal) of 209 nM.
